Measured values from EP2108642A1, “JAK INHIBITOR” (Kyowa Hakko Kirin Co., Ltd., priority 2006, dated 2008).
Counter-ions that a name gives are not always drawn.

Tests used:
human JAK2 = molecular target: T1, human JAK2 (Homo sapiens, UniProt O60674); assay: JAK2 enzyme inhibitory activity (time-resolved fluorescence kinase assay with biotinylated Lyn-substrate peptide); type: biochemical; conditions: at a concentration of 1 µmol/L; His-tagged JAK2 (826-1132 amino acids), 10 µmol/L ATP, 30°C, 60 minutes
T1 construct: a functional domain (826-1132 amino acids) of human JAK2
Protocol: In order to measure the JAK2 enzyme inhibitory activity, the following process was employed. […] The relative activity (%) of the well containing the test compound was calculated by assuming the activity of the well of the enzyme to which 0.1% DMSO was added as 100% and the activity of the well to which no enzyme was added as 0%, and the difference between 100 and the obtained value was assumed to be the JAK2 inhibition ratio (%) of the test compound.

[1] = system: human acute myeloid leukemia cell line (HEL92.1.7) having a JAK2 V617F mutation; assay: Cell growth inhibitory activity against human acute myeloid leukemia cell line (WST-1 assay); type: cell-based; conditions: at a concentration of 10 µmol/L against HEL92.1.7, 72 hours culture
Protocol: Test Example 2: Cell growth inhibitory activity against human acute myeloid leukemia cell line
The cell growth inhibitory activity of test compound against a human acute myeloid leukemia cell line (HEL92.1.7) (ATCC No. TIB-180) having a JAK2 V617F mutation was measured according to the following process.
A Roswell Park Memorial Institute's Medium (RPMI) 1640 medium (GIBCO, catalog No. 11875-093) containing 10% fetal bovine serum (GIBCO, catalog No. 10437-028) was used to culture each cells. HEL92.1.7 cells controlled at 2. 5 × 10^4 cells/mL were inoculated into a TC MICROWELL 96U plate (Nalge Nunc, catalog No. 163320) at 80 µL per well, and were cultured at 37°C for 4 hours in a 5% carbon dioxide gas incubator. Then, 20 µL per well of DMSO solutions of test compounds adjusted to a final concentration of 10 µmol/L were added to the HEL92.1.7 cells, and the resulting mixtures were cultured again at 37°C for 72 hours in a 5% carbon dioxide gas incubator. Finally, 25 µL of WST-1 reagent {4-[3-(4-indophenyl)-2-(4-nitrophenyl)-2H-5-tetrazolio]-1,3-benz ene disulfonate sodium salt} (Roche Diagnostics K.K., catalog No. 1644807) diluted to 40% with the medium described above was added, and incubation was conducted at 37°C for 2 hours, followed by measuring absorbance at 450 nm (reference wavelength: 690 nm) with a microplate spectrophotometer SPECTRA max 340PC (Molecular Devices). As for the cell growth inhibition ratio, the relative activity (%) of the well containing a test compound was calculated by assuming the activity of the well in which […] a medium to which only DMSO was added as 0%, and then the difference between 100 and the obtained value was assumed as the growth inhibition ratio (%) of the test compound. The higher the value, the stronger the growth inhibition activity against the cells.

T1 sequence (O60674 826-1132): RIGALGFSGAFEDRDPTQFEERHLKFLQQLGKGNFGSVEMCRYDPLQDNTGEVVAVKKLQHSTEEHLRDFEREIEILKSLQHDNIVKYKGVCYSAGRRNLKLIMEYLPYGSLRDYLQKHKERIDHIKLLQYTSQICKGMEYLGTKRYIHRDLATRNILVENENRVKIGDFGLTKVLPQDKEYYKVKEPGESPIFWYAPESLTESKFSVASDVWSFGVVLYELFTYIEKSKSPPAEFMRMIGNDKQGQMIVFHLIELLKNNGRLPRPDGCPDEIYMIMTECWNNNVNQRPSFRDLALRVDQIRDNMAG

SMILES | JAK2 inhibition ratio (human JAK2) | cell growth inhibition ratio [1]
CCN(CC)Cc1ccc2[nH]c(-c3cc(CN(C)C)cc4c3C(=O)NC4)cc2c1 [Compound 504, 5-(Dimethylaminomethyl)-7-[1H-5-(diethylaminomethyl)indol-2-yl)i soindolinone] | ≥ 50% | ≥ 50%
CC(C)Oc1cc2c(c(-c3ccc[nH]3)c1)C(=O)NC2 [Compound 571, 5-(2-Propyloxy)-7-(1H-pyrrol-2-yl)isoindolinone] | ≥ 50% | ≥ 50%
Cc1cc(O)ccc1-c1cc2c(c(-c3cc4cc(CN5CCCCC5)ccc4[nH]3)c1)C(=O)NC2 [Compound 550, 5-(4-Hydroxy-2-methylphenyl)-7-[1H-5-(piperidinomethyl)indol-2-yl]isoindolinone] | ≥ 50% | ≥ 50%
CN(C)Cc1cc(-c2cc3cc(CN4CCCCC4)ccc3[nH]2)c2c(c1O)CNC2=O [Compound 562, 4-Hydroxy-5-(dimethylaminomethyl)-7-[1H-5-(piperidinomethyl)indol-2-yl]isoindolinone dihydrochloride] | ≥ 50% | ≥ 50%
CC(C)Oc1cc2c(c(-c3cc4cc(CN5CCCCC5)ccc4[nH]3)c1)C(=O)NC2 [Compound 484, 5-(2-Propyloxy)-7-[1H-5-(piperidinomethyl)indol-2-yl]isoindolinone hydrochloride] | ≥ 50% | ≥ 50%
O=C1NCc2c(C#CCCO)ccc(-c3cc4cc(CN5CCCCC5)ccc4[nH]3)c21 [Compound 320, 4-(4-Hydroxy-1-butynyl)-7-[1H-5-(piperidinomethyl)indol-2-yl]iso indolinone hydrochloride] | ≥ 50% | ≥ 50%
CN(C)Cc1cc2c(c(-c3cc4cc(CN5CCN(CCO)CC5)ccc4[nH]3)c1)C(=O)NC2 [Compound 483, 5-(Dimethylaminomethyl)-7-{1H-5-[4-(2-hydroxyethyl)piperazin-1-ylmethyl]indol-2-yl}isoindolinone trihydrochloride] | ≥ 50% | ≥ 50%
O=C1NCc2c(-c3ccc(O)cc3)ccc(-c3cc4cc(CN5CCCCC5)ccc4[nH]3)c21 [Compound 305, 4-(4-Hydroxyphenyl)-7-[1H-5-(piperidinomethyl)indol-2-yl]isoindo linone hydrochloride] | ≥ 50% | ≥ 50%
CC(C)Nc1cc2c(c(-c3cc4cc(CN5CCCCC5)ccc4[nH]3)c1)C(=O)NC2 [Compound 509, 5-(2-Propylamino)-7-[1H-5-(piperidinomethyl)indol-2-yl)isoindoli none dihydrochloride] | ≥ 50% | ≥ 50%
CCN(CC)Cc1ccc2[nH]c(-c3cc(C(O)C(C)C)cc4c3C(=O)NC4)cc2c1 (centres unmarked) [Compound 555, 5-(1-Hydroxy-2-methylpropyl)-7-[1H-5-(diethylaminomethyl)indol-2-yl]isoindolinone hydrochloride] | ≥ 50% | ≥ 50%
